# Laboratory results: patent US12485127B2, “Compositions and methods for treatment and prevention of actinic keratosis using copper chlorin” (CHL Industries, LLC, priority 2024, dated 2025)
# Read-outs that look alike come from different tables or passages of the source.
# Experiments:
# [1] = system: HPV-18 (strain: KC470230.1); experiment: HPV-18 genome plasmid replication assay in C-33 A cells; format: cell-based, human papillomavirus; details: for EC50 / EC90: host cell line C-33A
# Procedure: (§1) The in vitro testing of the chlorin compounds and the positive control for antiviral cytopathic effect (CPE) was conducted through The National Institute of Allergy and Infectious Diseases (NIAID) NCEA Program. The in vitro testing was done by the method described by Beadle J R, Valiaeva N, Yang G, Yu J H, Broker T R, Aldern K A, et al. Synthesis and Antiviral Evaluation of Octadecyloxyethyl Benzyl 9-[(2-Phosphonomethoxy)ethyl]guanine (ODE-Bn-PMEG), a Potent Inhibitor of Transient HPV DNA Amplification. J Med Chem. 2016; 59(23):10470-8. PubMed PMID: 27933957. This method uses an HPV-11 replicon assay. The replicon (pMP619) is transfected into C-33 A cells grown as monolayers in 384-well plates. At 48 hours post transfection, the enzymatic activity of the destabilized NanoLuc reporter is assessed with NanoGlo reagent. […] The host C-33 A cells are epithelial cells originally isolated from the cervix of a uterine cancer patient. For reasons previously mentioned in this application, in vitro testing of compounds for potential antiviral activity against HPV strains cannot use human keratinocytes as the host cells due to the variable HPV replication activity with this cell line.
# (§2) The EC50 (or Effective Concentration 50) is the concentration of the test compound in micromoles that reduces virus replication by 50%. The EC90 (or Effective Concentration 90) is the concentration of the test compound in micromoles that reduces virus replication by 90%. CC50 (or Cytotoxic Concentration 50) is the concentration of the test compound in micromoles that reduces the cell viability of the virus host cell by 50%. The SI50 (or Selectivity Index 50) is a measure of both safety and efficacy or therapeutic index and is calculated by dividing the CC50 by the EC50. The SI90 (Selectivity Index 90) is calculated by dividing the CC50 by the EC90.
# (§3) The in vitro test method used to assess activity of copper chlorins according to embodiments herein against HPV-18 and HPV-31 used the same replication and quantification method described previously for Table 1 results but with HPV-18 and HPV-31 genome plasmids. Results of the in vitro testing of three of the same copper chlorins as used in Table 1, as well as the same control, against HPV 18 and HPV 31 are summarized in Table 2 and Table 3 below.
# [2] = system: HPV-11 (HE611260.1 strain); experiment: HPV-11 replicon assay (NanoLuc reporter) in C-33 A cells; format: cell-based, human papillomavirus; details: for EC90 / EC50: host cell line C-33A; for EC50: 48 hours post transfection
# Procedure: as §1
# The control compound, PMEG, has a molecular weight of 289.188 g/mol. The molecular weight of the copper chlorin compounds evaluated are (1) 661.5 g/mol for disodium copper isochlorin e4; (2) 710.5 g/mol for trisodium copper chlorin p6; (3) 724.15 g/mol for trisodium copper chlorin e6; and (4) 740 g/mol for trisodium copper rhodin g7. The antiviral test results in Table 1 for each treatment composition and the control are reported in micromoles (uM) for the EC50, EC90, and CC50. The SI 50 and SI 90 are calculated from the EC50, EC90, and CC50 data.
# as §2
# [3] = system: HPV-31 (strain: HQ53768.1); experiment: HPV-31 genome plasmid replication assay in C-33 A cells; format: cell-based, human papillomavirus; details: for EC50 / EC90: host cell line C-33A
# Procedure: as §1, §2, §3
# [4] = system: HPV-11 (HE611260.1 strain); details: HPV-11 replicon assay; reference range; read-out: EC50 value range of the reference compound for this assay; cited from earlier work
# [5] = Cytotoxicity to virus host cell (CC50); format: cell-based, human; details: human, C-33A host cells
# [6] = system: Human neonatal epidermal keratinocytes (HEKn); experiment: Transcriptome study (Clariom S) of gene regulation in keratinocytes; format: cell-based; details: 20 ug/mL; 24-hour exposure; versus water control
# Procedure: The transcriptome study of copper chlorins was conducted by Sunny Biodiscovery laboratory and Thermo-Fisher Scientific Microarray Research Services Laboratory, both of Santa Clara, California to determine gene regulatory activity and biomarkers associated with activity of the copper chlorins on human skin by assessing gene expression from keratinocyte culture after 24-hour exposure of each of the copper chlorins as previously detailed in U.S. Provisional Application Ser. No. 63/233,229 (filed on Aug. 14, 2021).
# Human neonatal epidermal keratinocytes (HEKn) were obtained from Cell Applications 5 (San Diego, CA) and were plated in a 96 well plate (Bioland Scientific, Paramount, CA, item #701003 made of high clarity polystyrene) with keratinocyte growth media (Human EpiVita Serum-Free Growth Medium for Neonatal Cells; Cell Applications, San Diego, CA). Cells were mixed with growth media at a rate of 10,000 cells per 200 μl (approximately 10^4 cells per well) and added to the 96 wells (0.2 mL/well) and incubated overnight at 37° C.
# Following the overnight incubation of keratinocytes, each of the 4 copper chlorins evaluated was separately dissolved in sterile distilled water at a concentration of 20 mg/mL. Dissolution occurs at 20-25° C. with slight agitation for 1-2 minutes until no solid particles were visible. This stock solution of 20 mg/mL was then further diluted with sterile water to a concentration of 500 μg/mL. The 500 μg/mL solution of each test copper chlorin was added to the cells in the growth media at a ratio of 1:20 (test solution: cells & media) and incubated in the wells for 24 hours at 37° C.
# The following day the test solution and growth media were removed from the wells and the cells were rinsed with phosphate-buffered saline (PBS). The RNA from the cells treated with each of the test compounds was extracted and purified with a RNeasy Mini Plus Kit (Catalogue #74134; Qiagen, Germantown, MD) with automated lysing and homogenization using a Qiacube Connect robotic station (Qiagen, Germantown, MD). The protocol for RNA extraction is selected on the Qiacube Connect automated station and cell samples, labware, and reagents are loaded as instructed. Cells are first lysed and homogenized in highly denaturing guanidine-isothiocyanate-containing Buffer RLT Plus, which immediately inactivates RNases to ensure isolation of intact RNA. The lysate is passed through Qiacube Connect loaded gDNA Eliminator spin columns, 15 ethanol is added to the flow-through, and the samples are then applied to Qiacube preloaded RNeasy MinElute spin columns. RNA binds to the membrane and contaminants are washed away. High quality RNA is eluted and collected in a total of 30 μL sterile distilled water.
# The stepwise procedure for production of RNA using RNeasy Plus procedure is outlined FIG. 4. Once collected, the purity of the RNA is assessed with the NanoDrop Lite spectrophotometer (Thermo Fisher Scientific, Waltham, MA) at 260 nm and 280 nm. The NanoDrop Lite unit is a small, stand-alone UV spectrophotometer that is designed 5 to measure microvolumes (1-2 μL) of nucleic acid and protein samples. Purity of the collected RNA was verified by adding 1 μL of the collected RNA to the NanoDrop Lite unit, selecting the RNA application on the NanoDrop Lite Home screen and following the stepwise measuring procedure as detailed in the NanoDrop Lite Manual.
# The extracted RNA for each of the four treatment compositions evaluated from the above procedure was then transported on dry ice to a laboratory specializing in transcriptome analysis (Thermo Fisher Scientific Microarray Research Services Laboratory, Santa Clara, CA). The transcriptome profiling of the RNA samples was conducted using the Clariom S GeneChip® Pico Assay platform. […]
# C-33 A cells = experiment: Cytotoxicity to virus host cell (CC50); format: cell-based, human
# actinic keratosis = details: cited from earlier work
molecule,measurement,setting,value
"Nc1nc2c(ncn2CCOCP(=O)(O)O)c(=O)[nH]1 [9-[2-(phosphono-methoxy)-ethyl]guanine, reference compound]",EC50,[1]; Human papillomavirus,2.33 µM
same,EC90,[1]; Human papillomavirus,21.3 µM
same,EC90,[2]; Human papillomavirus,> 150 µM
same,EC50,[2]; Human papillomavirus,2.27 µM
same,EC50,[3]; Human papillomavirus,3.92 µM
same,EC90,[3]; Human papillomavirus,18.4 µM
same,EC50,[4],2 to 9.2 µM
same,CC50,[5]; HPV-11 test (Table 1),> 150 µM
same,CC50,[5]; HPV-18 test (Table 2),> 250 µM
same,CC50,[5]; HPV-31 test (Table 3),> 250 µM
C=Cc1c(C)c2cc3nc(c(CC(=O)[O-])c4[n-]c(cc5nc(cc1[n-]2)C(C)=C5CC)c(C)c4C(=O)[O-])C(CCC(=O)[O-])C3C.[Cu+2].[Na+].[Na+].[Na+] (centres unmarked) [Trisodium copper chlorin e6],EC50,[1],1.42 µM
same,EC90,[1],2.97 µM
same,EC50 converted from micromoles,[2]; converted with molecular weight 724.15,1.998 µg/mL
same,EC90,[2],24.9 µM
same,EC50,[2],2.76 µM
same,antiviral activity classification based on SI50,[3],"moderately active (SI50=10−49, moderately active)"
same,EC50,[3],1.75 µM
same,EC90,[3],3.8 µM
same,"CDKN1A cyclin-dependent kinase inhibitor 1A (p21, Cip1) gene regulation (keratinocytes)",[6],+2.22 fold
same,CYB561 Cytochrome b561 gene regulation (keratinocytes),[6],−2.28 fold
same,EPGN Epithelial mitogen gene regulation (keratinocytes),[6],−2.56 fold
same,MAPK14 Mitogen-activated protein kinase 14 gene regulation (keratinocytes),[6],−2.23 fold
C=Cc1c(C)c2cc3nc(c(C(=O)[O-])c4[n-]c(cc5nc(cc1[n-]2)C(C)=C5CC)c(C)c4C(=O)[O-])C(CCC(=O)[O-])C3C.[Cu+2].[Na+].[Na+].[Na+] (centres unmarked) [Trisodium copper chlorin p6],EC90,[2],23.6 µM
same,EC50,[2],5.51 µM
same,KDM7A lysine (K)-specific demethylase 7A gene regulation (keratinocytes),[6],+2.38 fold
same,UNC5B Unc-5 netrin receptor B gene regulation (keratinocytes),[6],+3.59 fold
same,CC50,C-33 A cells,58.4 µM
O=C(O)Cc1ccccc1Nc1c(Cl)cccc1Cl [diclofenac],AK recurrence rate,actinic keratosis; after 12 months from initial treatments,85%
O=C(Cc1ccc(-c2ccc(OCCN3CCOCC3)cc2)cn1)NCc1ccccc1 [turbanibulin],sustained complete clearance,"actinic keratosis; after one year, estimated",~27%
same,Initial complete clearance,actinic keratosis; trial 1 vs trial 2,44-54%
Disodium copper isochlorin e4,EC50,[1],3.2 µM
same,EC90,[1],6.09 µM
same,EC90,[2],20.6 µM
same,EC50,[2],4.63 µM
same,EC50,[3],0.25 µM
same,EC90,[3],4.45 µM
same,"CDKN1A cyclin-dependent kinase inhibitor 1A (p21, Cip1) gene regulation (keratinocytes)",[6],+2.46 fold
same,EPGN Epithelial mitogen gene regulation (keratinocytes),[6],−3.17 fold
same,KDM7A lysine (K)-specific demethylase 7A gene regulation (keratinocytes),[6],+2.62 fold
same,UNC5B Unc-5 netrin receptor B gene regulation (keratinocytes),[6],+8.06 fold
Trisodium copper rhodin g7,antiviral activity classification based on SI50,[1],highly active (SI50>50 highly active)
same,EC50,[1],1.19 µM
same,EC90,[1],2.62 µM
same,EC90,[2],58.8 µM
same,EC50,[2],4.48 µM
same,EC50,[3],0.36 µM
same,EC90,[3],1.62 µM
